± gives the expanded uncertainty stated by the source.
Tests used:
[1] = 293.15 K, 101.13 kPa, Vibrating tube method
[2] = xn = mol fraction of the nth substance listed; details: 101.13 kPa, Liquid, x1 = 0.5; for mass density: Vibrating tube method; for electrical conductivity: Alternating current cell with electrodes; for viscosity: Concentric cylinders viscometry
[3] = refractive index (Na D-line) (dimensionless); xn = mol fraction of the nth substance listed; details: 101.13 kPa, Liquid, Standard Abbe refractometry, x1 = 0.5

OCCCCCCO [1,6-hexanediol]
mass density ([1]; Liquid): 947 ± 20 kg/m3

CCC(O)CO (stereo not given) [1,2-butanediol]
mass density ([1]; Liquid): 1000 ± 20 kg/m3

C[N+](C)(C)Cc1ccccc1.[Cl-] [trimethylbenzylammonium chloride]
mass density ([1]; Crystal): 1061 ± 20 kg/m3

C[N+](C)(C)Cc1ccccc1.[Cl-] [trimethylbenzylammonium chloride] + OCC(O)CO
mass density ([2]; 293 K): 1170.3 ± 20 kg/m3
electrical conductivity ([2]; 298 K): 0.0688 ± 0.014 S/m
viscosity ([2]; 298 K): 383.9 ± 59 mPa·s
mass density ([2]; 298 K): 1167.2 ± 20 kg/m3
electrical conductivity ([2]; 303 K): 0.115 ± 0.023 S/m
viscosity ([2]; 303 K): 159.6 ± 40 mPa·s
mass density ([2]; 303 K): 1164.3 ± 20 kg/m3
electrical conductivity ([2]; 308 K): 0.123 ± 0.025 S/m
viscosity ([2]; 308 K): 79.8 ± 14 mPa·s
mass density ([2]; 308 K): 1161.4 ± 20 kg/m3
electrical conductivity ([2]; 313 K): 0.126 ± 0.025 S/m
viscosity ([2]; 313 K): 48.5 ± 6.5 mPa·s
mass density ([2]; 313 K): 1158.4 ± 20 kg/m3
electrical conductivity ([2]; 318 K): 0.123 ± 0.025 S/m
viscosity ([2]; 318 K): 29.7 ± 4 mPa·s
mass density ([2]; 318 K): 1155 ± 20 kg/m3
electrical conductivity ([2]; 323 K): 0.178 ± 0.036 S/m
viscosity ([2]; 323 K): 18.3 ± 3 mPa·s
mass density ([2]; 323 K): 1152.4 ± 20 kg/m3
refractive index ([3]; 293 K): 1.5653 ± 0.0008
refractive index ([3]; 298 K): 1.5612 ± 0.0007
refractive index ([3]; 303 K): 1.5587 ± 0.0007
refractive index ([3]; 308 K): 1.556 ± 0.0007
refractive index ([3]; 313 K): 1.5532 ± 0.0007
refractive index ([3]; 318 K): 1.5503 ± 0.0006
refractive index ([3]; 323 K): 1.5493 ± 0.0005

OCC(O)CO [glycerol]
mass density ([1]; Liquid): 1238 ± 20 kg/m3

OCCO [1,2-ethanediol]
mass density ([1]; Liquid): 1105 ± 20 kg/m3

C[N+](C)(C)Cc1ccccc1.[Cl-] [trimethylbenzylammonium chloride] + OCCCCCCO
mass density ([2]; 293 K): 1142.3 ± 20 kg/m3
electrical conductivity ([2]; 298 K): 0.0842 ± 0.017 S/m
viscosity ([2]; 298 K): 298.3 ± 41 mPa·s
mass density ([2]; 298 K): 1132.6 ± 20 kg/m3
electrical conductivity ([2]; 303 K): 0.145 ± 0.029 S/m
viscosity ([2]; 303 K): 143.6 ± 29 mPa·s
mass density ([2]; 303 K): 1126.2 ± 20 kg/m3
electrical conductivity ([2]; 308 K): 0.17 ± 0.034 S/m
viscosity ([2]; 308 K): 72.9 ± 14 mPa·s
mass density ([2]; 308 K): 1119.7 ± 20 kg/m3
electrical conductivity ([2]; 313 K): 0.184 ± 0.037 S/m
viscosity ([2]; 313 K): 38.7 ± 6.4 mPa·s
mass density ([2]; 313 K): 1113.4 ± 20 kg/m3
electrical conductivity ([2]; 318 K): 0.195 ± 0.039 S/m
viscosity ([2]; 318 K): 23.5 ± 2.9 mPa·s
mass density ([2]; 318 K): 1107.1 ± 20 kg/m3
electrical conductivity ([2]; 323 K): 0.253 ± 0.051 S/m
viscosity ([2]; 323 K): 16.8 ± 1.8 mPa·s
mass density ([2]; 323 K): 1100 ± 20 kg/m3
refractive index ([3]; 293 K): 1.5143 ± 0.0007
refractive index ([3]; 298 K): 1.5107 ± 0.0007
refractive index ([3]; 303 K): 1.5083 ± 0.0006
refractive index ([3]; 308 K): 1.5052 ± 0.0007
refractive index ([3]; 313 K): 1.5016 ± 0.0007
refractive index ([3]; 318 K): 1.4987 ± 0.0006
refractive index ([3]; 323 K): 1.4963 ± 0.0006

O=C([O-])[O-].[Na+].[Na+] [sodium carbonate]
mass density ([1]; Crystal): 2516 ± 23 kg/m3

C[N+](C)(C)Cc1ccccc1.[Cl-] [trimethylbenzylammonium chloride] + CCC(O)CO
mass density ([2]; 293 K): 1104 ± 20 kg/m3
electrical conductivity ([2]; 298 K): 0.194 ± 0.039 S/m
viscosity ([2]; 298 K): 231.7 ± 27 mPa·s
mass density ([2]; 298 K): 1093 ± 20 kg/m3
electrical conductivity ([2]; 303 K): 0.312 ± 0.063 S/m
viscosity ([2]; 303 K): 128.5 ± 22 mPa·s
mass density ([2]; 303 K): 1083 ± 20 kg/m3
electrical conductivity ([2]; 308 K): 0.382 ± 0.076 S/m
viscosity ([2]; 308 K): 64.2 ± 12 mPa·s
mass density ([2]; 308 K): 1073 ± 20 kg/m3
electrical conductivity ([2]; 313 K): 0.437 ± 0.087 S/m
viscosity ([2]; 313 K): 34.5 ± 5.5 mPa·s
mass density ([2]; 313 K): 1064 ± 20 kg/m3
electrical conductivity ([2]; 318 K): 0.465 ± 0.093 S/m
viscosity ([2]; 318 K): 22.1 ± 2.2 mPa·s
mass density ([2]; 318 K): 1057 ± 20 kg/m3
electrical conductivity ([2]; 323 K): 0.532 ± 0.11 S/m
viscosity ([2]; 323 K): 17.9 ± 1.2 mPa·s
mass density ([2]; 323 K): 1049 ± 20 kg/m3
refractive index ([3]; 293 K): 1.4982 ± 0.0006
refractive index ([3]; 298 K): 1.4956 ± 0.0007
refractive index ([3]; 303 K): 1.4921 ± 0.0007
refractive index ([3]; 308 K): 1.4892 ± 0.0007
refractive index ([3]; 313 K): 1.4851 ± 0.0007
refractive index ([3]; 318 K): 1.4823 ± 0.0007
refractive index ([3]; 323 K): 1.4781 ± 0.0008

C[N+](C)(C)Cc1ccccc1.[Cl-] [trimethylbenzylammonium chloride] + OCCO
mass density ([2]; 293 K): 1123.7 ± 20 kg/m3
electrical conductivity ([2]; 298 K): 0.539 ± 0.11 S/m
viscosity ([2]; 298 K): 137.3 ± 11 mPa·s
mass density ([2]; 298 K): 1118 ± 20 kg/m3
electrical conductivity ([2]; 303 K): 0.706 ± 0.14 S/m
viscosity ([2]; 303 K): 96.5 ± 11 mPa·s
mass density ([2]; 303 K): 1111.2 ± 20 kg/m3
electrical conductivity ([2]; 308 K): 0.843 ± 0.17 S/m
viscosity ([2]; 308 K): 54.6 ± 8.8 mPa·s
mass density ([2]; 308 K): 1105.1 ± 20 kg/m3
electrical conductivity ([2]; 313 K): 0.902 ± 0.18 S/m
viscosity ([2]; 313 K): 28.9 ± 4.4 mPa·s
mass density ([2]; 313 K): 1098 ± 20 kg/m3
electrical conductivity ([2]; 318 K): 0.965 ± 0.19 S/m
viscosity ([2]; 318 K): 20.7 ± 2 mPa·s
mass density ([2]; 318 K): 1091 ± 20 kg/m3
electrical conductivity ([2]; 323 K): 1.02 ± 0.2 S/m
viscosity ([2]; 323 K): 14.2 ± 1.8 mPa·s
mass density ([2]; 323 K): 1085 ± 20 kg/m3
refractive index ([3]; 293 K): 1.4806 ± 0.0009
refractive index ([3]; 298 K): 1.4763 ± 0.0008
refractive index ([3]; 303 K): 1.4731 ± 0.0007
refractive index ([3]; 308 K): 1.4695 ± 0.0008
refractive index ([3]; 313 K): 1.4652 ± 0.0008
refractive index ([3]; 318 K): 1.4611 ± 0.0007
refractive index ([3]; 323 K): 1.4587 ± 0.0006
